Laboratory results from patent US8163766B2, “Beta-secretase modulators and methods of use” (Amgen Inc., priority 2005, dated 2012).

test system: Aβ 40 in conditioned media of cells stably expressing Amyloid Precursor Protein (APP); experiment: BACE Cell-Based Assay (Aβ40 in conditioned medium, sandwich ELISA); conditions: 24 hours of incubation with the test compounds, Aβ 40 by sandwich ELISA, read-out: IC50 values in the cell-based assay (inhibition of Aβ 40)
Method in brief: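 IC50 derived from Aβ40 reduction in supernatants, quantified by europium time-resolved fluorescence ELISA with pAb40/biotin-6E10 antibodies incubated at 4°C. Cells stably expressing APP received compound for 24 h, ten concentrations from 100 μM or 10 μM top, final DMSO 0.1%.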

IC50, ≤ 5 µM:
CCc1ccc2c(c1)C(NC[C@@H](O)[C@H](Cc1ccccc1)NC(=O)c1cc(-c3cccnc3)c(=O)n(C3CCCC3)c1)CC1(CCCC1)O2 (stereo partly drawn) [Example 14, 1-cyclopentyl-N-((2S,3R)-4-(6-ethyl-2,2-spirocyclopentylchroman-4-ylamino)-3-hydrodroxy-1-phenylbutan-2-yl)-6-OXO-5-(pyridine-3-yl)-1,6-dihydropyridine-3-carboxamide]
CC(C)c1ccc2c(c1)[C@@H](NC[C@@H](O)[C@H](Cc1ccccc1)NC(=O)c1ccc(=O)n(C3CCCC3)c1)CC1(CCCC1)O2 [Example 138, 1-cyclopentyl-N-((2S,3R)-4-((S)-2,2-spirocyclopentyl-6-iso-propylchroman-4-ylamino)-3-hydroxy-1-phenylbutan-2-yl)-6-oxo-1,6-dihydropyridine-3-carb oxamide]
CCc1ccc2c(c1)[C@@H](NC[C@@H](O)[C@H](Cc1ccccc1)NC(=O)c1cc(N3CCCC3=O)c(=O)n(C3CCCC3)c1)CC1(CCCCCC1)O2 [Example 130, 1-cyclopentyl-N-((2S,3R)-4-((S)-6-ethyl-2,2-spirocycloheptyl-chroman-4-ylamino)-3-hydroxy-1-phenylbutan-2-yl)-6-oxo-5-(2-oxopyrrolidin-1-yl)-1,6-dihydropyridine-3-carboxamide]
CC1(C)C[C@H](NC[C@@H](O)[C@H](Cc2ccccc2)NC(=O)c2cc(-c3ccccn3)c(=O)n(C3CCCC3)c2)c2cc(Br)ccc2N1 [Example 482, N-((1S,2R)-3-(((4S)-6-bromo-2,2-dimethyl-1,2,3,4-tetrahydro-4-quinolinyl)amino)-2-hydroxy-1-(phenylmethyl)propyl)-1′-cyclopentyl-2′-oxo-1′,2′-dihydro-2,3′-bipyridine-5′-carboxamide]
CCc1ccc2c(c1)[C@@H](NC[C@@H](O)[C@H](Cc1ccccc1)NC(=O)c1ccc(=O)n(C3CCCC3)c1)CC(C)(C)O2 [Example 163]
Cc1ccc2c(c1)[C@@H](NC[C@@H](O)[C@H](Cc1ccccc1)NC(=O)c1cc(N3CCCC3=O)c(=O)n(C3CCCC3)c1)CC1(CCCC1)O2 [Example 131, 1-cyclopentyl-N-((2S,3R)-4-((S)-2,2-spirocyclopentyl-6-methylchroman-4-ylamino)-3-hydroxy-1-phenylbutan-2-yl)-6-oxo-5-(2-oxopyrrolidin-1-yl)-1,6-dihydropyridine-3-carboxamide]
O=C1CC[C@H](C(=O)N[C@@H](Cc2ccccc2)[C@H](O)CN[C@H]2CC3(CCC3)Oc3ccc(N4CCOCC4)cc32)O1 [Example 529, (2R)-N-((1S,2R)-2-hydroxy-3-(((4S)-6-(4-morpholinyl)-3,4-dihydrospiro[chromene-2,1′-cyclobutan]-4-yl)amino)-1-(phenylmethyl)propyl)-5-oxotetrahydro-2-furancarboxamide]
CC(C)(C)Cc1ccc2c(c1)[C@@H](NC[C@@H](O)[C@H](Cc1ccccc1)NC(=O)c1cc(-c3ccccn3)c(=O)n(C3CCCC3)c1)CC(C)(C)N2 [Example 489, 1′-cyclopentyl-N-((1S,2R)-3-(((4S)-6-(2,2-dimethylpropyl)-2,2-dimethyl-1,2,3,4-tetrahydro-4-quinolinyl)amino)-2-hydroxy-1-(phenylmethyl)propyl)-2′-oxo-1′,2′-dihydro-2,3′-bipyridine-5′-carboxamide]
Cc1cccc(C(=O)N2CCO[C@H](C(=O)N[C@@H](Cc3ccccc3)[C@H](O)CN[C@H]3CC4(CCC4)Cc4ncc(C)cc43)C2)c1 [Example 494, (2S)-N-((1S,2R)-2-hydroxy-3-(((5′S)-3′-methyl-5′,8′-dihydro-6′H-spiro[cyclobutane-1,7′-quinolin]-5′-yl)amino)-1-(phenylmethyl)propyl)-4-((3-methylphenyl)carbonyl)-2-morpholinecarboxamide]
CC1(C)Oc2ncccc2[C@@H]1NC[C@@H](O)[C@H](Cc1ccccc1)NC(=O)c1cc(C2=CC=CCN2)c(=O)n(C2CCCC2)c1 [Example 513, 1′-cyclopentyl-N-((1S,2R)-3-(((3S)-2,2-dimethyl-2,3-dihydrofuro[2,3-b]pyridin-3-yl)amino)-2-hydroxy-1-(phenylmethyl)propyl)-2′-oxo-1,2′-dihydro-2,3′-bipyridine-5′-carboxamide]
O=C(N[C@@H](Cc1ccccc1)[C@H](O)CN[C@H]1CC2(CCC2)Nc2ccc(Br)cc21)c1cc(-c2ccccn2)c(=O)n(C2CCCC2)c1 [Example 471, N-((1S,2R)-3-(((4′S)-6′-bromo-3′,4′-dihydro-1′H-spiro[cyclobutane-1,2′-quinolin]-4′-yl)amino)-2-hydroxy-1-(phenylmethyl)propyl)-1′-cyclopentyl-2′-oxo-1′,2′-dihydro-2,3′-bipyridine-5′-carboxamide]
CCc1ccc2c(c1)[C@H](NC[C@@H](O)[C@H](Cc1ccccc1)NC(=O)c1cc(-c3ccccn3)c(=O)n(C(C)C)c1)CC1(CCCC1)O2 [Example 165, N-((2S,3R)-4((R)-6-ethyl-2,2-spirocyclopentylchroman-4-ylamino)-3-hydroxy-1-phenylbutan-2-yl)-1-isopropyl-6-oxo-5-(pyridin-2-yl)-1,6-dihydropyridine-3-carboxamide]
O=C1CC[C@@H](C(=O)N[C@@H](Cc2ccccc2)[C@H](O)CN[C@H]2CC3(CCC3)Oc3ccc(N4CCOCC4)cc32)O1 [Example 528, (2S)-N-((1S,2R)-2-hydroxy-3-(((4S)-6-(4-morpholinyl)-3,4-dihydrospiro[chromene-2,1′-cyclobutan]-4-yl)amino)-1-(phenylmethyl)propyl)-5-oxotetrahydro-2-furancarboxamide]
CCc1ccc2c(c1)C(NC[C@@H](O)[C@H](Cc1ccccc1)NC(=O)c1cc(C3CCCCO3)c(=O)n(C3CCCC3)c1)CC1(CCCC1)O2 (stereo partly drawn) [Example 23, 1-cyclopentyl-N-((2S,3R)-4-(6-ethyl-2,2-spirocyclopentylchroman-4-ylamino)-3-hydrodroxy-1-phenylbutan-2-yl)-6-OXO-5-(tetrahydro-2H-pyran-2-yl)-1,6-dihydropyridine-3-carboxamide]
COCCNc1ccc2c(c1)[C@@H](NC[C@@H](O)[C@H](Cc1ccccc1)NC(=O)c1cc(-c3ccccn3)c(=O)n(C3CCCC3)c1)CC(C)(C)C2=O [Example 505, 1′-cyclopentyl-N-((1S,2R)-3-(((1S)-3,3-dimethyl-7-((2-(methyloxy)ethyl)amino)-4-oxo-1,2,3,4-tetrahydro-1-naphthalenyl)amino)-2-hydroxy-1-(phenylmethyl)propyl)-2′-oxo-1′,2′-dihydro-2,3′-bipyridine-5′-carboxamide]
CCc1ccc2c(c1)[C@@H](NC[C@@H](O)[C@H](Cc1ccccc1)NC(=O)c1ccc(=O)n(CC(F)(F)F)c1)CC1(CCC1)O2 [Example 119]
CCc1ccc2c(c1)C(NC[C@@H](O)[C@H](Cc1ccccc1)NC(=O)c1cc(-n3cccn3)c(=O)n(C3CCCC3)c1)CC1(CCCC1)O2 (some centres unmarked) [Example 6]
CCc1ccc2c(c1)[C@@H](NC[C@@H](O)[C@H](Cc1cscn1)NC(=O)c1cc(-c3ccccn3)c(=O)n(C3CCCC3)c1)CC1(CCC1)O2 [Example 525, 1′-cyclopentyl-N-((1S,2R)-3-(((4S)-6-ethyl-3,4-dihydrospiro[chromene-2,1′-cyclobutan]-4-yl)amino)-2-hydroxy-1-(1,3-thiazol-4-ylmethyl)propyl)-2′-oxo-1′,2′-dihydro-2,3′-bipyridine-5′-carboxamide]
CCc1ccc2c(c1)C(NC[C@@H](O)[C@H](Cc1ccccc1)NC(=O)c1cc(NC(C)C)c(=O)n(C3CCCC3)c1)CC1(CCCC1)O2 (stereo partly drawn) [Example 18, 1-cyclopentyl-N-((2S,3R)-4-(6-ethyl-2,2-spirocyclopentylchroman-4-ylamino)-3-hydrodroxy-1-phenylbutan-2-yl)-5-(isopropylamino)-6-oxo-1,6-dihydropyridine-3-carboxamide]
CCc1ccc2c(c1)[C@@H](NC[C@@H](O)[C@H](Cc1ccccc1)NC(=O)c1cc(N3CCCC3=O)c(=O)n(C3CCCC3)c1)CC1(CCCC1C)O2 (stereo partly drawn) [Example 140, 1-cyclopentyl-N-((2S,3R)-4-((S)-6-ethyl-2,2-(-methyl)-spirocyclopentylchroman-4-ylamino)-3-hydroxy-1-phenylbutan-2-yl)-6-oxo-5-(2-oxopyrrolidin-1-yl)-1,6-dihydropyridine-3-carboxamide]
O=C(N[C@@H](Cc1ccccc1)[C@H](O)CN[C@H]1CC2(CCC2)Oc2ccccc21)c1cc(-c2ccccn2)c(=O)n(C2CCCC2)c1 [Example 476, 1′-cyclopentyl-N-((1S,2R)-3-((4S)-3,4-dihydrospiro[chromene-2,1′-cyclobutan]-4-ylamino)-2-hydroxy-1-(phenylmethyl)propyl)-2′-oxo-1′,2′-dihydro-2,3′-bipyridine-5′-carboxamide]
CCc1ccc2c(c1)[C@@H](NCC(=O)[C@H](Cc1ccccc1)NC(=O)[C@@H]1CN(C(=O)N3CCCCC3)CCO1)CC(C)(C)O2 [Example 475, (2S)-N-((1S)-3-(((4S)-6-ethyl-2,2-dimethyl-3,4-dihydro-2H-chromen-4-yl)amino)-2-oxo-1-(phenylmethyl)propyl)-4-(1-piperidinylcarbonyl)-2-morpholinecarboxamide]
O=C(N[C@@H](Cc1ccccc1)[C@H](O)CN[C@H]1CC2(CCCC2)Oc2ccccc21)c1cc(N2CCCC2=O)c(=O)n(C2CCCC2)c1 [Example 148, 1-cyclopentyl-N-((2S,3R)-4-((S)-2,2-spirocyclopentylchroman-4-ylamino)-3-hydroxy-1-phenylbutan-2-yl)-6-oxo-5-(2-oxopyrrolidin-1-yl)-1,6-dihydropyridine-3-carboxamide]
